Laboratory results as given in US12180193B2, “Accelerating fibrosarcoma protein degrading compounds and associated methods of use” (Arvinas Operations, Inc., priority 2020, dated 2024).

Tests used:
[1] = biological target: T1, BRAF V600E (Homo sapiens, UniProt P15056, V600E); assay: Cellular assay of target protein degradation, T-Rex 293 cells stably transfected with HA-BRAF_V600E (HA immunofluorescence, high content imaging); format: cell-based; settings: T-Rex 293 HA-BRAF V600E; for DC50: half maximal degradation, read-out: BRaf V600E DC50; for Dmax: maximum degradation observed
T1 construct: expressed in transfected cells
Method in brief: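 24 h compound exposure, 1 μM–0.1 nM final, 0.1% DMSO, 37 °C; cells induced with 1 ng/mL doxycycline. PFA fix, Triton permeabilize, anti-HA overnight 4 °C, Hoechst/phalloidin counterstain. Output: DC50, Dmax as % control.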

[2] = biological target: T2, BRAF G466V (Homo sapiens, UniProt P15056, G466V); assay: Cellular assay of target protein degradation, T-Rex 293 cells stably transfected with HA-BRAF G466V (HA immunofluorescence, high content imaging); format: cell-based; settings: T-Rex 293 HA-BRAF G466V; for DC50: half maximal degradation, read-out: BRaf G466V DC50; for Dmax: maximum degradation observed
T2 construct: expressed in transfected cells
Method in brief: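 24 h compound, 30 nM–3 pM final, 0.1% DMSO, 37° C; HA-BRAF G466V induced with 0.75 ng/mL doxycycline. PFA fix, Triton perm, anti-HA + Alexa fluor secondary, Hoechst/phalloidin counterstain; imaging. DC50, Dmax (% of control).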

T1 sequence (P15056 whole entry V600E): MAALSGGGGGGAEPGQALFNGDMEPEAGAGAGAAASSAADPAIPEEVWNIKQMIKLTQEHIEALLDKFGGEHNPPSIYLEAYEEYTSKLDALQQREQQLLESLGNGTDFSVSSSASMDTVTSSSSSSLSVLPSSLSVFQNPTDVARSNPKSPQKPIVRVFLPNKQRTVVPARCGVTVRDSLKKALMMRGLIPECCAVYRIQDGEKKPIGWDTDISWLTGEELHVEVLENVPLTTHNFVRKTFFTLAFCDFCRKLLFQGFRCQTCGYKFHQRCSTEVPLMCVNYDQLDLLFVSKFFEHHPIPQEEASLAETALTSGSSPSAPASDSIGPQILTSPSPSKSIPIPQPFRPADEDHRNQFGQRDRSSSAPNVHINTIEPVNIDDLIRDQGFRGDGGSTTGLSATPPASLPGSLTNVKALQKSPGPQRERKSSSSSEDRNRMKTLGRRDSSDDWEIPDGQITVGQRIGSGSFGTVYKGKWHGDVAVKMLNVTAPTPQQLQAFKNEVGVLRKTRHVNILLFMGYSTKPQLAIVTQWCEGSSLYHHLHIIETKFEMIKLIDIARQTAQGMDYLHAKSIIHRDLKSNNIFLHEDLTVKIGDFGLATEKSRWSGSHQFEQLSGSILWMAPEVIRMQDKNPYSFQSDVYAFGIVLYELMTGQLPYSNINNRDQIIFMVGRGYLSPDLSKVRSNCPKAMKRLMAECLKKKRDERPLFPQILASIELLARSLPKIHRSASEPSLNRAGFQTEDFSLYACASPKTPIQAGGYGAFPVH
T2 sequence (P15056 whole entry G466V): as the sequence (P15056 whole entry V600E) above, with G466V, E600V counted along it

Compound	DC50 [1] [nM]	Dmax [1] [%]	DC50 [2] [nM]	Dmax [2] [%]
O=C1CCC(N2Cc3cc(C4CCN(CC[C@@H]5CCN(c6ccc(-c7cnc8[nH]cc(C(=O)c9c(F)ccc(NS(=O)(=O)N%10CC[C@@H](F)C%10)c9F)c8c7)cc6)C5)CC4)ccc3C2=O)C(=O)N1 (stereo partly drawn) [Compound 216, (3R)-N-[3-(5-{4-[(3R)-3-(2-{4-[2-(2,6-dioxopiperidin-3-yl)-1-oxo-2,3-dihydro-1H-isoindol-5-yl]piperidin-1-yl}ethyl)pyrrolidin-1-yl]phenyl}-1H-pyrrolo [2,3-b]pyridine-3-carbonyl)-2,4-difluorophenyl]-3-fluoropyrrolidine-1-sulfonamide]	5 to 50	< 35	1 to 10	> 70
O=C1CCC(N2Cc3cc(C4CCN(CC[C@H]5CCN(c6ccc(-c7cnc8[nH]cc(C(=O)c9c(F)ccc(NS(=O)(=O)N%10CC[C@@H](F)C%10)c9F)c8c7)cc6)C5)CC4)ccc3C2=O)C(=O)N1 (stereo partly drawn) [Compound 217, (3R)-N-[3-(5-{4-[(3S)-3-(2-{4-[2-(2,6-dioxopiperidin-3-yl)-1-oxo-2,3-dihydro-1H-isoindol-5-yl]piperidin-1-yl}ethyl)pyrrolidin-1-yl]phenyl}-1H-pyrrolo [2,3-b]pyridine-3-carbonyl)-2,4-difluorophenyl]-3-fluoropyrrolidine-1-sulfonamide]	5 to 50	35 to 70	10 to 30	> 70
O=C1CCC(N2Cc3cc(C4CCN(CCC5CN(c6ccc(-c7cnc8[nH]cc(C(=O)c9c(F)ccc(NS(=O)(=O)N%10CC[C@@H](F)C%10)c9F)c8c7)cc6)C5)CC4)ccc3C2=O)C(=O)N1 (stereo partly drawn) [Compound 218, (3R)-N-[3-(5-{4-[3-(2-{4-[2-(2,6-dioxopiperidin-3-yl)-1-oxo-2,3-dihydro-1H-isoindol-5-yl]piperidin-1-yl}ethyl)azetidin-1-yl]phenyl}-1H-pyrrolo[2,3-b]pyridine-3-carbonyl)-2,4-difluorophenyl]-3-fluoropyrrolidine-1-sulfonamide]	> 500		> 30	
O=C1CC[C@H](N2Cc3cc(N4CCN(CC5CCN(c6ccc(-c7cnc8[nH]cc(C(=O)c9c(F)ccc(NS(=O)(=O)N%10CC[C@@H](F)C%10)c9F)c8c7)cc6)CC5)CC4)ccc3C2=O)C(=O)N1 [Compound 219, (3R)-N-{3-[5-(4-{4-[(4-{2-[(3S)-2,6-dioxopiperidin-3-yl]-1-oxo-2,3-dihydro-1H-isoindol-5-yl}piperazin-1-yl)methyl]piperidin-1-yl}phenyl)-1H-pyrrolo [2,3-b]pyridine-3-carbonyl]-2,4-difluorophenyl}-3-fluoropyrrolidine-1-sulfonamide]	5 to 50	35 to 70	1 to 10	> 70
O=C1CC[C@@H](N2Cc3cc(N4CCN(CC5CCN(c6ccc(-c7cnc8[nH]cc(C(=O)c9c(F)ccc(NS(=O)(=O)N%10CC[C@@H](F)C%10)c9F)c8c7)cc6)CC5)CC4)ccc3C2=O)C(=O)N1 [Compound 220, (3R)-N-{3-[5-(4-{4-[(4-{2-[(3R)-2,6-dioxopiperidin-3-yl]-1-oxo-2,3-dihydro-1H-isoindol-5-yl}piperazin-1-yl)methyl]piperidin-1-yl}phenyl)-1H-pyrrolo [2,3-b]pyridine-3-carbonyl]-2,4-difluorophenyl}-3-fluoropyrrolidine-1-sulfonamide]	5 to 50	35 to 70	1 to 10	> 70
O=C1CC[C@H](N2Cc3cc(N4CC5(CN(CC6CCN(c7ccc(-c8cnc9[nH]cc(C(=O)c%10c(F)ccc(NS(=O)(=O)N%11CC[C@@H](F)C%11)c%10F)c9c8)cc7)CC6)C5)C4)ccc3C2=O)C(=O)N1 [Compound 221, (3R)-N-{3-[5-(4-{4-[(6-{2-[(3S)-2,6-dioxopiperidin-3-yl]-1-oxo-2,3-dihydro-1H-isoindol-5-yl}-2,6-diazaspiro[3.3]heptan-2-yl)methyl]piperidin-1-yl}phenyl)-1H-pyrrolo[2,3-b]pyridine-3-carbonyl]-2,4-difluorophenyl}-3-fluoropyrrolidine-1-sulfonamide]	5 to 50	35 to 70	1 to 10	> 70
O=C1CC[C@@H](N2Cc3cc(N4CC5(CN(CC6CCN(c7ccc(-c8cnc9[nH]cc(C(=O)c%10c(F)ccc(NS(=O)(=O)N%11CC[C@@H](F)C%11)c%10F)c9c8)cc7)CC6)C5)C4)ccc3C2=O)C(=O)N1 [Compound 222, (3R)-N-{3-[5-(4-{4-[(6-{2-[(3R)-2,6-dioxopiperidin-3-yl]-1-oxo-2,3-dihydro-1H-isoindol-5-yl}-2,6-diazaspiro[3.3]heptan-2-yl)methyl]piperidin-1-yl}phenyl)-1H-pyrrolo[2,3-b]pyridine-3-carbonyl]-2,4-difluorophenyl}-3-fluoropyrrolidine-1-sulfonamide]	5 to 50	35 to 70	1 to 10	> 70
O=C1CC[C@H](N2Cc3cc(N4CCC(CN5CCN(c6ccc(-c7cnc8[nH]cc(C(=O)c9c(F)ccc(NS(=O)(=O)N%10CC[C@@H](F)C%10)c9F)c8c7)cc6)CC5)CC4)ccc3C2=O)C(=O)N1 [Compound 223, (3R)-N-{3-[5-(4-{4-[(1-{2-[(3S)-2,6-dioxopiperidin-3-yl]-1-oxo-2,3-dihydro-1H-isoindol-5-yl}piperidin-4-yl)methyl]piperazin-1-yl}phenyl)-1H-pyrrolo [2,3-b]pyridine-3-carbonyl]-2,4-difluorophenyl}-3-fluoropyrrolidine-1-sulfonamide]	5 to 50	35 to 70	1 to 10	> 70
O=C1CC[C@@H](N2Cc3cc(N4CCC(CN5CCN(c6ccc(-c7cnc8[nH]cc(C(=O)c9c(F)ccc(NS(=O)(=O)N%10CC[C@@H](F)C%10)c9F)c8c7)cc6)CC5)CC4)ccc3C2=O)C(=O)N1 [Compound 224, (3R)-N-{3-[5-(4-{4-[(1-{2-[(3R)-2,6-dioxopiperidin-3-yl]-1-oxo-2,3-dihydro-1H-isoindol-5-yl}piperidin-4-yl)methyl]piperazin-1-yl}phenyl)-1H-pyrrolo [2,3-b]pyridine-3-carbonyl]-2,4-difluorophenyl}-3-fluoropyrrolidine-1-sulfonamide]	5 to 50	35 to 70	1 to 10	> 70
COc1cc(N2CCC(CN3CC4(C3)CN(c3ccc(-c5cnc6[nH]cc(C(=O)c7c(F)ccc(NS(=O)(=O)N8CC[C@@H](F)C8)c7F)c6c5)cc3)C4)CC2)cc2c1C(=O)N([C@@H]1CCC(=O)NC1=O)C2 [Compound 225, (3R)-N-{3-[5-(4-{6-[(1-{2-[(3R)-2,6-dioxopiperidin-3-yl]-7-methoxy-1-oxo-2,3-dihydro-1H-isoindol-5-yl}piperidin-4-yl)methyl]-2,6-diazaspiro[3.3]heptan-2-yl}phenyl)-1H-pyrrolo[2,3-b]pyridine-3-carbonyl]-2,4-difluorophenyl}-3-fluoropyrrolidine-1-sulfonamide]	5 to 50	35 to 70	1 to 10	> 70

Continued, values first:

DC50 [1] [nM]	Dmax [1] [%]	DC50 [2] [nM]	Dmax [2] [%]	Compound
5 to 50	35 to 70	1 to 10	> 70	COc1ccc(NS(=O)(=O)N2CC[C@@H](F)C2)c(F)c1C(=O)c1c[nH]c2ncc(-c3ccc(N4CCC(CN5CCC(c6ccc7c(c6)CN([C@H]6CCC(=O)NC6=O)C7=O)CC5)CC4)cc3)cc12 [Compound 212, (3R)—N-{3-[5-(4-{4-[(4-{2-[(3S)-2,6-dioxopiperidin-3-yl]-1-oxo-2,3-dihydro-1H-isoindol-5-yl}piperidin-1-yl)methyl]piperidin-1-yl}phenyl)-1H-pyrrolo[2,3-b]pyridine-3-carbonyl]-2-fluoro-4-methoxyphenyl}-3-fluoropyrrolidine-1-sulfonamide]
5 to 50	35 to 70	1 to 10	> 70	CN(CC(F)F)S(=O)(=O)Nc1ccc(F)c(C(=O)c2c[nH]c3ncc(-c4ccc(N5CCC(CN6CCC(c7ccc8c(c7)CN(C7CCC(=O)NC7=O)C8=O)CC6)CC5)cc4)cc23)c1F (stereo not drawn) [Compound 213, 3-(5-{1-[(1-{4-[3-(3-{[(2,2-difluoroethyl)(methyl)sulfamoyl]amino}-2,6-difluorobenzoyl)-1H-pyrrolo[2,3-b]pyridin-5-yl]phenyl}piperidin-4-yl)methyl]piperidin-4-yl}-1-oxo-2,3-dihydro-1H-isoindol-2-yl) piperidine-2,6-dione]
5 to 50	< 35	1 to 10	35 to 70	O=C1CCC(N2Cc3cc(N4CCC(C5CCN(c6ccc(-c7cnc8[nH]cc(C(=O)c9c(F)ccc(NS(=O)(=O)N%10CC[C@@H](F)C%10)c9F)c8c7)cc6)CC5)CC4)ccc3C2=O)C(=O)N1 (stereo partly drawn) [Compound 214, (3R)-N-{3-[5-(4-{1′-[2-(2,6-dioxopiperidin-3-yl)-1-oxo-2,3-dihydro-1H-isoindol-5-yl]-[4,4′-bipiperidin]-1-yl}phenyl)-1H-pyrrolo[2,3-b]pyridine-3-carbonyl]-2,4-difluorophenyl}-3-fluoropyrrolidine-1-sulfonamide]
5 to 50	35 to 70	1 to 10	> 70	O=C1CCC(N2Cc3cc(C4CCN(CC5CCN(c6cnc(-c7cnc8[nH]cc(C(=O)c9c(F)ccc(NS(=O)(=O)N%10CC[C@@H](F)C%10)c9F)c8c7)nc6)CC5)CC4)ccc3C2=O)C(=O)N1 (stereo partly drawn) [Compound 215, (3R)-N-[3-(5-{5-[4-({4-[2-(2,6-dioxopiperidin-3-yl)-1-oxo-2,3-dihydro-1H-isoindol-5-yl]piperidin-1-yl}methyl)piperidin-1-yl]pyrimidin-2-yl}-1H-pyrrolo[2,3-b]pyridine-3-carbonyl)-2,4-difluorophenyl]-3-fluoropyrrolidine-1-sulfonamide]
